# According to patent US9708321B2, “Spiro-quinazolinone derivatives and their use as positive allosteric modulators of mGluR4” (Merck Patent GmbH, priority 2013, dated 2017):
# Biological target: T1, hmGluR4 (Homo sapiens, UniProt Q14833)
# T1 construct: host or cells: HEK293T
# Assay: HEK-293 mGluR4 cells cAMP assay with EC20 L-Glutamate (HTRF)
# Type: cell-based
# Conditions: positive allosteric activity at EC20 L-Glutamate, 10 μM Forskolin, HEK293T mGluR4 cells, cAMP HTRF; read-out: hrmGluR4/HEK293T-hmGluR4 (EC50)
# Summary of the method: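 PAM mode in mGluR4 HEK293T suspension cells, glutamine-starved overnight; 10 μM forskolin (final) with EC20 L-glutamate (2.3 μM), 2000 cells/well, 30 min at 37 °C. cAMP measured by two-step HTRF after 60 min at room temperature. Basal control EC20 glutamate; EC100 400 μM glutamate (2×).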
# T1 sequence (Q14833 33-912): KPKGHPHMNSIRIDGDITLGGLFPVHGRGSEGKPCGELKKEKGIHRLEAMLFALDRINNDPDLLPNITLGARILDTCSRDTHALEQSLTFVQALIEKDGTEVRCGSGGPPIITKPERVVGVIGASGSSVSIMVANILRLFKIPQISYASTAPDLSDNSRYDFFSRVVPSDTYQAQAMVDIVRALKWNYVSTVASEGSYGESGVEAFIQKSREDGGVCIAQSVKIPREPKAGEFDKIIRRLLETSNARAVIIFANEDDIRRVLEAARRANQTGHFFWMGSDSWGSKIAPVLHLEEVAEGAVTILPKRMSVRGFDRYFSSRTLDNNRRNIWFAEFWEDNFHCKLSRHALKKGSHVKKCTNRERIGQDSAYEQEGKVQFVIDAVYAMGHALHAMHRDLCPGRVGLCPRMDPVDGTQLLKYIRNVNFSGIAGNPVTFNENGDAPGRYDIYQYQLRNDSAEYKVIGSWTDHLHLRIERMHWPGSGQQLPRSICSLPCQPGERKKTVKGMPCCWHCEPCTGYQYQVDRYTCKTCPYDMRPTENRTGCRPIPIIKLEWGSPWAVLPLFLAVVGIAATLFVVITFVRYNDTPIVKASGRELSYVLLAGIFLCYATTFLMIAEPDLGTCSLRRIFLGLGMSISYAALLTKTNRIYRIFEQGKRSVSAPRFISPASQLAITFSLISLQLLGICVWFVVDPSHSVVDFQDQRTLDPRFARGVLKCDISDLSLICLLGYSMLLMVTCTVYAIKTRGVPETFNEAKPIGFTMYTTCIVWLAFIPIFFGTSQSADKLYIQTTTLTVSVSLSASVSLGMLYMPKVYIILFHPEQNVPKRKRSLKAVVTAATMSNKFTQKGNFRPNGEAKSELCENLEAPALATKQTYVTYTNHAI
row,SMILES,EC50 [nM]
1,"O=C1c2ccc(Br)cc2NC2(CCN(Cc3ccc(F)c(F)c3)CC2)N1c1ccc(OC(F)(F)F)c(Cl)c1 [Compound 102, 7′-Bromo-3′-(3-chloro-4-(trifluoromethoxy)phenyl)-1-(3,4-difluorobenzyl)-1′H-spiro[piperidine-4,2′-quinazolin]-4′(3′H)-one]",1000 to 10000
2,"COc1ccc(N2C(=O)c3ccccc3NC23CCC(NC(=O)OC(C)(C)C)CC3)cc1 (centres unmarked) [Compound 88, tert-Butyl (3′-(4-methoxyphenyl)-4′-oxo-3′,4′-dihydro-1′H-spiro[cyclohexane-1,2′-quinazolin]-4-yl)carbamate]",1000 to 10000
3,"CCOC(=O)c1ccc2c(c1)NC1(CN(C(C)c3ccc(F)cc3)C1)N(c1ccc(OC(F)(F)F)cc1)C2=O (centres unmarked) [Compound 87, Ethyl 1-(1-(4-fluorophenyl)ethyl)-4′-oxo-3′-(4-(trifluoromethoxy)phenyl)-3′,4′-dihydro-1′H-spiro[azetidine-3,2′-quinazoline]-7′-carboxylate]",1000 to 10000
4,"COc1ccc(N2C(=O)c3ccc(-c4ccccc4)cc3NC23CCN(Cc2ccc(F)c(F)c2)CC3)cc1 [Compound 19, 1-(3,4-Difluorobenzyl)-3′-(4-methoxyphenyl)-7′-phenyl-1′H-spiro[piperidine-4,2′-quinazolin]-4′(3′H)-one]",< 1000
5,"COc1ccc(N2C(=O)c3ccc(Cl)cc3NC23CCN(Cc2cccc(Cl)c2)CC3)cc1 [Compound 38, 7′-Chloro-1-(3-chlorobenzyl)-3′-(4-methoxyphenyl)-1′H-spiro[piperidine-4,2′-quinazolin]-4′(3′H)-one]",< 1000
6,"COC(=O)c1ccc2c(c1)NC1(CCN(Cc3ccccc3)CC1)N(c1ccc(OC)cc1)C2=O [Compound 15, Methyl 1-benzyl-3′-(4-methoxyphenyl)-4′-oxo-3′,4′-dihydro-1′H-spiro[piperidine-4,2′-quinazoline]-7′-carboxylate]",< 1000
7,"COc1ccc(N2C(=O)c3ccccc3NC23CN(Cc2cccc(C)c2)C3)cc1 [Compound 89, 3′-(4-Methoxyphenyl)-1-(3-methylbenzyl)-1′H-spiro[azetidine-3,2′-quinazolin]-4′(3′H)-one]",1000 to 10000
8,"COc1ccc(N2C(=O)c3ccccc3NC23CN(Cc2ccccc2C)C3)cc1 [Compound 94, 3′-(4-Methoxyphenyl)-1-(2-methylbenzyl)-1′H-spiro[azetidine-3,2′-quinazolin]-4′(3′H)-one]",1000 to 10000
9,"CC(c1ccccc1)N1CCC2(CC1)Nc1cc(Br)ccc1C(=O)N2c1ccc(Cl)cc1 (centres unmarked) [Compound 26, 7′-Bromo-3′-(4-chlorophenyl)-1-(1-phenylethyl)-1′H-spiro[piperidine-4,2′-quinazolin]-4′(3′H)-one]",< 1000
10,"COc1ccc(N2C(=O)c3ccc(F)cc3NC23CCN(Cc2ccc(F)c(F)c2)CC3)cc1 [Compound 23, 1-(3,4-Difluorobenzyl)-7′-fluoro-3′-(4-methoxyphenyl)-1′H-spiro[piperidine-4,2′-quinazolin]-4′(3′H)-one]",< 1000
11,"COc1ccc(N2C(=O)c3ccc(OC)cc3NC23CCN(Cc2cccc(C#N)c2)CC3)cc1 [Compound 100, 3-((7′-Methoxy-3′-(4-methoxyphenyl)-4′-oxo-3′,4′-dihydro-1′H-spiro[piperidine-4,2′-quinazolin]-1-yl)methyl)benzonitrile]",1000 to 10000
12,"COc1ccc(N2C(=O)c3ccccc3NC23CCN(Cc2cccc(OC(F)(F)F)c2)CC3)cc1 [Compound 55, 3′-(4-Methoxyphenyl)-1-(3-(trifluoromethoxy)benzyl)-1′H-spiro[piperidine-4,2′-quinazolin]-4′(3′H)-one]",< 1000
13,"COc1ccc(N2C(=O)c3ccccc3NC23CN(Cc2ccc(F)cc2)C3)cc1 [Compound 101, 1-(4-Fluorobenzyl)-3′-(4-methoxyphenyl)-1′H-spiro[azetidine-3,2′-quinazolin]-4′(3′H)-one]",1000 to 10000
14,"O=C1c2ccc(F)cc2NC2(CN(C(c3cccc(F)c3)C(F)(F)F)C2)N1c1ccc(OC(F)(F)F)cc1 (centres unmarked) [Compound 53, 7′-Fluoro-1-(2,2,2-trifluoro-1-(3-fluorophenyl)ethyl)-3′-(4-(trifluoromethoxy)phenyl)-1′H-spiro[azetidine-3,2′-quinazolin]-4′(3′H)-one]",< 1000
15,"COc1ccc(N2C(=O)c3ccccc3NC23CN(Cc2cccc(Cl)c2)C3)cc1 [Compound 76, 1-(3-Chlorobenzyl)-3′-(4-methoxyphenyl)-1′H-spiro[azetidine-3,2′-quinazolin]-4′(3′H)-one]",1000 to 10000
16,"COc1ccc(N2C(=O)c3ccccc3NC23CCN(Cc2cccc(Cl)c2)CC3)cc1 [Compound 104, 1-(3-Chlorobenzyl)-3′-(4-methoxyphenyl)-1′H-spiro[piperidine-4,2′-quinazolin]-4′(3′H)-one]",1000 to 10000
17,"COc1ccc(N2C(=O)c3cc(O)ccc3NC23CCN(Cc2ccc(F)c(F)c2)CC3)cc1 [Compound 122, 1-(3,4-Difluorobenzyl)-6′-hydroxy-3′-(4-methoxyphenyl)-1′H-spiro[piperidine-4,2′-quinazolin]-4′(3′H)-one]",1000 to 10000
18,"COC(=O)c1ccc2c(c1)NC1(CCN(Cc3ccc(F)c(F)c3)CC1)N(c1ccc(OC(F)(F)F)cc1)C2=O [Compound 36, Methyl 1-(3,4-difluorobenzyl)-4′-oxo-3′-(4-(trifluoromethoxy)phenyl)-3′,4′-dihydro-1′H-spiro[piperidine-4,2′-quinazoline]-7′-carboxylate]",< 1000
19,"COc1ccc(N2C(=O)c3ccccc3NC23CCN(Cc2cc(F)cc(F)c2)CC3)cc1 [Compound 80, 1-(3,5-Difluorobenzyl)-3′-(4-methoxyphenyl)-1′H-spiro[piperidine-4,2′-quinazolin]-4′(3′H)-one]",1000 to 10000
20,"O=C1c2ccc(Br)cc2NC2(CCN(Cc3ccc(F)c(F)c3)CC2)N1c1ccc(OC(F)(F)F)cc1 [Compound 32, 7′-Bromo-1-(3,4-difluorobenzyl)-3′-(4-(trifluoromethoxy)phenyl)-1′H-spiro[piperidine-4,2′-quinazolin]-4′(3′H)-one]",< 1000
21,"COc1ccc(N2C(=O)c3ccccc3NC23CN(Cc2ccccc2Cl)C3)cc1 [Compound 50, 1-(2-Chlorobenzyl)-3′-(4-methoxyphenyl)-1′H-spiro[azetidine-3,2′-quinazolin]-4′(3′H)-one]",< 1000
22,"N#Cc1cccc(CN2CCC3(CC2)Nc2cc(C(F)(F)F)ccc2C(=O)N3c2ccc(OC(F)(F)F)cc2)c1 [Compound 42, 3-((4′-Oxo-3′-(4-(trifluoromethoxy)phenyl)-7′-(trifluoromethyl)-3′,4′-dihydro-1′H-spiro[piperidine-4,2′-quinazolin]-1-yl)methyl)benzonitrile]",< 1000
23,"COc1cccc(N2C(=O)c3ccccc3NC23CCN(Cc2cc(Cl)ccc2Cl)CC3)c1 [Compound 115, 1-(2,5-Dichlorobenzyl)-3′-(3-methoxyphenyl)-1′H-spiro[piperidine-4,2′-quinazolin]-4′(3′H)-one]",1000 to 10000
